# Laboratory results as given in US9957263B2, “Bromodomain inhibitors” (AbbVie Inc., priority 2013, dated 2018).
# Columns and labels:
# [1] = target: BRD4 (BDI_K57-E168) (Homo sapiens (Human), UniProt O60885); assay: TR-FRET bromodomain binding assay, BRD4 first bromodomain; conditions: His-tagged BD1, Alexa647-labeled probe 100 nM
# In short: (§1)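 Probe displacement, TR-FRET: 8 nM His-BRD4 domain, 1 nM Eu-anti-His, Alexa647 BET-inhibitor probe 100 nM (BDI)/30 nM (BDII); 20 mM Na phosphate pH 6.0, 50 mM NaCl, 1 mM DTT; cpd 50 μM-0.85 nM, 3-fold; 1 h RT; Ex 340/[…]; IC50 → Ki.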
# [2] = target: BRD4 (BDII_E352-M457) (Homo sapiens (Human), UniProt O60885); assay: TR-FRET bromodomain binding assay, BRD4 second bromodomain; conditions: His-tagged BD2, Alexa647-labeled probe 30 nM
# In short: as §1
compound,measurement,setting,value
"CCNC(=O)c1cc2c(-c3cc(S(=O)(=O)CC)ccc3Oc3c(C)cccc3CN3CCCS3(=O)=O)cn(C)c(=O)c2[nH]1 [Example 152, 4-[2-{2-[(1,1-dioxido-1,2-thiazolidin-2-yl)methyl]-6-methylphenoxy}-5-(ethylsulfonyl)phenyl]-N-ethyl-6-methyl-7-oxo-6,7-dihydro-1H-pyrrolo[2,3-c]pyridine-2-carboxamide]",Ki,[1],2080 nM
same,Ki,[2],36 nM
"CC(C)c1ccc(S(=O)(=O)Nc2cccc(Oc3ccc(S(C)(=O)=O)cc3-c3cn(C)c(=O)c4[nH]ccc34)c2)cc1 [Example 46, N-{3-[2-(6-methyl-7-oxo-6,7-dihydro-1H-pyrrolo[2,3-c]pyridin-4-yl)-4-(methylsulfonyl)phenoxy]phenyl}-4-(propan-2-yl)benzenesulfonamide]",Ki,[1],10 nM
same,Ki,[2],1.8 nM
"Cc1cccc(C)c1Oc1ccc(S(C)(=O)=O)cc1-c1cn(C)c(=O)c2[nH]c(-c3nc(C4CC4)no3)cc12 [Example 135, 2-(3-cyclopropyl-1,2,4-oxadiazol-5-yl)-4-[2-(2,6-dimethylphenoxy)-5-(methylsulfonyl)phenyl]-6-methyl-1,6-dihydro-7H-pyrrolo[2,3-c]pyridin-7-one]",Ki,[1],54.9 nM
same,Ki,[2],23.1 nM
"CCNC(=O)c1cc2c(-c3ccc(C(=O)N(CCCN4CCOCC4)Cc4ccccc4)cc3Oc3c(C)cccc3C)cn(C)c(=O)c2[nH]1 [Example 161, 4-[4-{benzyl[3-(morpholin-4-yl)propyl]carbamoyl}-2-(2,6-dimethylphenoxy)phenyl]-N-ethyl-6-methyl-7-oxo-6,7-dihydro-1H-pyrrolo[2,3-c]pyridine-2-carboxamide]",Ki,[1],1050 nM
same,Ki,[2],3.16 nM
"Cn1cc(-c2cc(S(C)(=O)=O)ccc2Oc2cccc(C(=O)N3CCN(CCO)CC3)c2)c2cc[nH]c2c1=O [Example 26, 4-[2-(3-{[4-(2-hydroxyethyl)piperazin-1-yl]carbonyl}phenoxy)-5-(methylsulfonyl)phenyl]-6-methyl-1,6-dihydro-7H-pyrrolo[2,3-c]pyridin-7-one]",Ki,[1],27 nM
same,Ki,[2],15 nM
"CC(=O)Nc1ccc(S(=O)(=O)N2CCC(Nc3ccc(S(C)(=O)=O)cc3-c3cn(C)c(=O)c4[nH]ccc34)CC2)cc1 [Example 103, N-{4-[(4-{[2-(6-methyl-7-oxo-6,7-dihydro-1H-pyrrolo[2,3-c]pyridin-4-yl)-4-(methylsulfonyl)phenyl]amino}piperidin-1-yl)sulfonyl]phenyl}acetamide]",Ki,[1],4.1 nM
same,Ki,[2],4.9 nM
"CCS(=O)(=O)Nc1cc(-c2cn(C)c(=O)c3[nH]ccc23)c(Oc2ccc(F)cc2F)cc1CNC1CCCC1 [Example 7, N-{2-[(cyclopentylamino)methyl]-4-(2,4-difluorophenoxy)-5-(6-methyl-7-oxo-6,7-dihydro-1H-pyrrolo[2,3-c]pyridin-4-yl)phenyl}ethanesulfonamide]",Ki,[1],32 nM
same,Ki,[2],6.9 nM
"Cc1cc(-c2ccc(-c3cn(C)c(=O)c4[nH]ccc34)c(OCC3CC3)c2)[nH]n1 [Example 1, 4-[2-(cyclopropylmethoxy)-4-(3-methyl-1H-pyrazol-5-yl)phenyl]-6-methyl-1,6-dihydro-7H-pyrrolo[2,3-c]pyridin-7-one]",Ki,[1],26 nM
same,Ki,[2],55 nM
"CCS(=O)(=O)Nc1cc(-c2cn(C)c(=O)c3[nH]ccc23)c(Oc2ccc(F)cc2F)cc1CO [Example 6, N-[4-(2,4-difluorophenoxy)-2-(hydroxymethyl)-5-(6-methyl-7-oxo-6,7-dihydro-1H-pyrrolo[2,3-c]pyridin-4-yl)phenyl]ethanesulfonamide]",Ki,[1],14 nM
same,Ki,[2],2 nM
"CCS(=O)(=O)c1ccc(Oc2c(C)cccc2Cl)c(-c2cn(C)c(=O)c3[nH]c(C(=O)NCC#N)cc23)c1 [Example 120, 4-[2-(2-chloro-6-methylphenoxy)-5-(ethylsulfonyl)phenyl]-N-(cyanomethyl)-6-methyl-7-oxo-6,7-dihydro-1H-pyrrolo[2,3-c]pyridine-2-carboxamide]",Ki,[1],> 238 nM
same,Ki,[2],158 nM
"CSCCCN1CCC(Nc2ccc(S(C)(=O)=O)cc2-c2cn(C)c(=O)c3[nH]ccc23)CC1 [Example 86, 6-methyl-4-[2-({1-[3-(methylsulfanyl)propyl]piperidin-4-yl}amino)-5-(methylsulfonyl)phenyl]-1,6-dihydro-7H-pyrrolo[2,3-c]pyridin-7-one]",Ki,[1],24 nM
same,Ki,[2],75 nM
"CCNC(=O)c1cc2c(-c3cc(S(=O)(=O)CC)ccc3Oc3c(C)cccc3Cn3ccccc3=O)cn(C)c(=O)c2[nH]1 [Example 158, N-ethyl-4-[5-(ethylsulfonyl)-2-{2-methyl-6-[(2-oxopyridin-1(2H)-yl)methyl]phenoxy}phenyl]-6-methyl-7-oxo-6,7-dihydro-1H-pyrrolo[2,3-c]pyridine-2-carboxamide]",Ki,[1],883 nM
same,Ki,[2],28.5 nM
"CCNC(=O)c1cc2c(-c3ccc(C(=O)N(CCN4CCSCC4)c4ccc(Cl)c(Cl)c4)cc3Oc3c(C)cccc3C)cn(C)c(=O)c2[nH]1 [Example 162, 4-[4-{(3,4-dichlorophenyl)[2-(thiomorpholin-4-yl)ethyl]carbamoyl}-2-(2,6-dimethylphenoxy)phenyl]-N-ethyl-6-methyl-7-oxo-6,7-dihydro-1H-pyrrolo[2,3-c]pyridine-2-carboxamide]",Ki,[1],> 12700 nM
same,Ki,[2],88.6 nM
"CCS(=O)(=O)c1ccc(OCC2CC2(F)F)c(-c2cn(C)c(=O)c3[nH]c(CN4CCN(c5ccncc5)CC4)cc23)c1 (stereo not drawn) [Example 16, 4-{2-[(2,2-difluorocyclopropyl)methoxy]-5-(ethylsulfonyl)phenyl}-6-methyl-2-{[4-(pyridin-4-yl)piperazin-1-yl]methyl}-1,6-dihydro-7H-pyrrolo[2,3-c]pyridin-7-one]",Ki,[1],2.5 nM
same,Ki,[2],30 nM
"CCS(=O)(=O)c1ccc(OCC2CC2(F)F)c(-c2cn(C)c(=O)c3[nH]c(CN4CCN(c5nccs5)CC4)cc23)c1 (stereo not drawn) [Example 17, 4-{2-[(2,2-difluorocyclopropyl)methoxy]-5-(ethylsulfonyl)phenyl}-6-methyl-2-{[4-(1,3-thiazol-2-yl)piperazin-1-yl]methyl}-1,6-dihydro-7H-pyrrolo[2,3-c]pyridin-7-one]",Ki,[1],4.4 nM
same,Ki,[2],60 nM
"Cn1cc(-c2cc(S(C)(=O)=O)ccc2Oc2cccc(C(=O)N3CCN(C4CCCC4)CC3)c2)c2cc[nH]c2c1=O [Example 28, 4-[2-{3-[(4-cyclopentylpiperazin-1-yl)carbonyl]phenoxy}-5-(methylsulfonyl)phenyl]-6-methyl-1,6-dihydro-7H-pyrrolo[2,3-c]pyridin-7-one]",Ki,[1],13 nM
same,Ki,[2],11 nM
"CCS(=O)(=O)Nc1cc(-c2cn(C)c(=O)c3[nH]ccc23)c(Oc2ccc(F)cc2F)cc1C(=O)NC1CCCC1 [Example 9, N-cyclopentyl-5-(2,4-difluorophenoxy)-2-[(ethylsulfonyl)amino]-4-(6-methyl-7-oxo-6,7-dihydro-1H-pyrrolo[2,3-c]pyridin-4-yl)benzamide]",Ki,[1],1.7 nM
same,Ki,[2],2 nM
"CCNC(=O)c1cc2c(-c3cc(S(=O)(=O)CC)ccc3Oc3c(C)cccc3CN3CCC3=O)cn(C)c(=O)c2[nH]1 [Example 157, N-ethyl-4-[5-(ethylsulfonyl)-2-{2-methyl-6-[(2-oxoazetidin-1-yl)methyl]phenoxy}phenyl]-6-methyl-7-oxo-6,7-dihydro-1H-pyrrolo[2,3-c]pyridine-2-carboxamide]",Ki,[1],387 nM
same,Ki,[2],16.9 nM
